In patent US20260217687A1 (NeoPhore Limited, priority 2023, published 2026):

Target: T1, recombinant N-terminal MLH1 (residues 15-340) (Homo sapiens, UniProt P40692)
T1 construct: recombinant N-terminal MLH1 (residues 15-340)
T1 sequence (P40692 15-340): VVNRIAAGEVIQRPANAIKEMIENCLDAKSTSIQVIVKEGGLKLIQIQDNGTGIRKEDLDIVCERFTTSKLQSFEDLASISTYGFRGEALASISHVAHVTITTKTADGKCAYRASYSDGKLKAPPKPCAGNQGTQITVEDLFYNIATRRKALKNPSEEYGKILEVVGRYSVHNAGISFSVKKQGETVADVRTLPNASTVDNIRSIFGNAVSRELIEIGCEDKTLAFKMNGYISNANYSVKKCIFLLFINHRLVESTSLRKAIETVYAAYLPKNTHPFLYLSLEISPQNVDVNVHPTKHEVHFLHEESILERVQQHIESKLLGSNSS
Assay: Fluorescence Polarisation Assay for MLH1
Assay type: binding
Conditions: 100 nM N-terminal MLH1, 5 nM probe compound
Method in brief: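 Fluorescence polarisation displacement: 100 nM MLH1 (15-340) preincubated 30 min at room temperature with compound, then 5 nM rhodamine-labelled probe added and read immediately. Buffer 25 mM HEPES pH 7.5, 250 mM NaCl, 10 mM MgCl2, 0.01% Triton X-100, 5 mM DTT; normalised to no-inhibitor and no-enzyme controls.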

Q: `O=C(c1c(O)cc(C(F)F)cc1OCc1ccccc1)N1CCc2ccccc2C1` [Example 4.35, (2-(Benzyloxy)-4-(difluoromethyl)-6-hydroxyphenyl)(3,4-dihydroisoquinolin-2(1H)-yl)methanone] was tested. Which IC50 did it give?
A: 1 to 10 µM

Q: Which IC50 does the source give for `Nc1cc2c(cn1)CN(C(=O)c1c(O)cc(C(F)F)cc1OCc1ccccc1)C2` [Example 27.11, (6-Amino-1,3-dihydro-2H-pyrrolo[3,4-c]pyridin-2-yl)(2-(benzyloxy)-4-(difluoromethyl)-6-hydroxyphenyl)methanone hydroformate] here?
A: 0.1 to 1 µM

Q: How did the IC50 turn out when `CN(C)CCOc1cccc2c1CCN2C(=O)c1c(O)cc(C(F)F)cc1OCc1ccccc1` [Example 27.13, (2-(Benzyloxy)-4-(difluoromethyl)-6-hydroxyphenyl)(4-(2-(dimethylamino)ethoxy)indolin-1-yl)methanone] was run?
A: 0.1 to 1 µM

Q: `COc1cc2c(c(N[C@H]3CCOC3)c1)CN(C(=O)c1c(O)cc(C(F)F)cc1OCc1ccccc1)CC2` [Example 4.20, (S)-(2-(Benzyloxy)-4-(difluoromethyl)-6-hydroxyphenyl)(6-methoxy-8-((tetrahydrofuran-3-yl)amino)-3,4-dihydroisoquinolin-2(1H)-yl)methanone] was tested. Which IC50 did it give?
A: 0.1 to 1 µM

Q: How did the IC50 turn out when `CN1CC(Oc2ccc3c(c2)CN(C(=O)c2c(O)cc(C(F)F)cc2OCc2ccccc2)CC3)C1` [Example 4.69, (2-(Benzyloxy)-4-(difluoromethyl)-6-hydroxyphenyl)(7-((1-methylazetidin-3-yl)oxy)-3,4-dihydroisoquinolin-2(1H)-yl)methanone] was run?
A: 0.1 to 1 µM

Q: For `N#Cc1cc(O)c(C(=O)N2Cc3ccc(OC4CCOCC4)cc3C2)c(OCc2ccccc2)c1` [Example 10.36, 3-(Benzyloxy)-5-hydroxy-4-(5-((tetrahydro-2H-pyran-4-yl)oxy)isoindoline-2-carbonyl)benzonitrile], which IC50 is on record?
A: 0.1 to 1 µM

Q: `CN1CC(Oc2ccc3c(c2)CN(C(=O)c2c(O)cc(C#N)cc2OCc2ccccn2)C3)C1` [Example 10.37, 3-Hydroxy-4-(5-((1-methylazetidin-3-yl)oxy)isoindoline-2-carbonyl)-5-(pyridin-2-ylmethoxy)benzonitrile] was tested. Which IC50 did it give?
A: 1 to 10 µM

Q: Which IC50 does the source give for `CN1CCN(Cc2ccc3c(c2)CN(C(=O)c2c(O)cc(C(F)F)cc2OCc2ccccc2)C3)CC1` [Example 4.30, (2-(Benzyloxy)-4-(difluoromethyl)-6-hydroxyphenyl) (5-((4-methylpiperazin-1-yl)methyl)isoindolin-2-yl) methanone] here?
A: 0.1 to 1 µM

Q: `CN(C)CCOc1cc2c(c(N[C@H]3CCOC3)c1)CN(C(=O)c1c(O)cc(Cl)cc1OCc1ccccc1)CC2` [Example 22, (S)-(2-(Benzyloxy)-4-chloro-6-hydroxyphenyl)(6-(2-(dimethylamino)ethoxy)-8-((tetrahydrofuran-3-yl)amino)-3,4-dihydroisoquinolin-2(1H)-yl)methanone] was tested. Which IC50 did it give?
A: < 0.1 µM

Q: Which IC50 does the source give for `O=C(c1c(O)cc(C(F)F)cc1OCc1ccccc1)N1CCc2cc(NC3CCOC3)ccc21` (single isomer, unassigned) [Example 27.5a, (S)-(2-(Benzyloxy)-4-(difluoromethyl)-6-hydroxyphenyl)(5-((tetrahydrofuran-3-yl)amino)indolin-1-yl)methanone or (R)-(2-(Benzyloxy)-4-(difluoromethyl)-6-hydroxyphenyl)(5-((tetrahydrofuran-3-yl)amino)indolin-1-yl)methanone] here?
A: 0.1 to 1 µM

Q: For `N#Cc1cc(O)c(C(=O)N2Cc3cccc(N[C@H]4CCOC4)c3C2)c(OCc2ccccn2)c1` [Example 10.39, (S)-3-Hydroxy-5-(pyridin-2-ylmethoxy)-4-(4-((tetrahydrofuran-3-yl)amino)isoindoline-2-carbonyl)benzonitrile], which IC50 is on record?
A: 0.1 to 1 µM

Q: For `CN(C)CCOc1cccc2c1CCN2C(=O)c1c(O)cc(C#N)cc1OCc1ccccc1` [Example 27.12, 3-(Benzyloxy)-4-(4-(2-(dimethylamino)ethoxy)indoline-1-carbonyl)-5-hydroxybenzonitrile], which IC50 is on record?
A: 1 to 10 µM
